#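 Cells were grown in 96-well plates and exposed to each compound for 48 hours at five concentrations; endpoints were interpolated linearly between bracketing concentrations, or set to the highest concentration if not reached. The concentration for 50% growth inhibition is given as GI50. At the TGI there is no net growth.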
# Assays:
# Assay in all cases: growth of human tumour cells (NCI), 48 h
# SK-MEL-28 melanoma = system: SK-MEL-28 melanoma
# BT-549 breast = system: BT-549 breast
# HL-60(TB) leukemia = system: HL-60(TB) leukemia
# U251 CNS = system: U251 CNS
# ACHN renal = system: ACHN renal
# CCRF-CEM leukemia = system: CCRF-CEM leukemia
# UO-31 renal = system: UO-31 renal
# SNB-75 CNS = system: SNB-75 CNS
# RPMI-8226 leukemia = system: RPMI-8226 leukemia
# HCC-2998 colon = system: HCC-2998 colon
# OVCAR-4 ovarian = system: OVCAR-4 ovarian
# OVCAR-5 ovarian = system: OVCAR-5 ovarian
# MDA-MB-231 breast = system: MDA-MB-231 breast
# MOLT-4 leukemia = system: MOLT-4 leukemia
# HCT-15 colon = system: HCT-15 colon
# CAKI-1 renal = system: CAKI-1 renal
# OVCAR-3 ovarian = system: OVCAR-3 ovarian
# KM12 colon = system: KM12 colon
# MCF7 breast = system: MCF7 breast
# IGROV1 ovarian = system: IGROV1 ovarian
# SK-MEL-2 melanoma = system: SK-MEL-2 melanoma
# SF-539 CNS = system: SF-539 CNS
# A549 NSCLC = system: A549 NSCLC
# SR leukemia = system: SR leukemia
# T-47D breast = system: T-47D breast
# MALME-3M melanoma = system: MALME-3M melanoma
# SK-OV-3 ovarian = system: SK-OV-3 ovarian
# HCT-116 colon = system: HCT-116 colon
# COLO 205 colon = system: COLO 205 colon
# M14 melanoma = system: M14 melanoma
# OVCAR-8 ovarian = system: OVCAR-8 ovarian
# PC-3 prostate = system: PC-3 prostate
# NCI-H23 lung = system: NCI-H23 lung
# HS 578T breast = system: HS 578T breast
# SNB-19 CNS = system: SNB-19 CNS
# DU-145 prostate = system: DU-145 prostate
# RXF 393 renal = system: RXF 393 renal
# NCI-H460 lung = system: NCI-H460 lung
# SK-MEL-5 melanoma = system: SK-MEL-5 melanoma
# HT29 colon = system: HT29 colon
# 786-0 renal = system: 786-0 renal
# TK-10 renal = system: TK-10 renal
# UACC-62 melanoma = system: UACC-62 melanoma
# EKVX NSCLC = system: EKVX NSCLC
# NCI/ADR-RES ovarian = system: NCI/ADR-RES ovarian
# SN12C renal = system: SN12C renal
# NCI-H226 lung = system: NCI-H226 lung
# LOX IMVI melanoma = system: LOX IMVI melanoma
# SF-268 CNS = system: SF-268 CNS
# SW-620 colon = system: SW-620 colon
# K-562 leukemia = system: K-562 leukemia
# SF-295 CNS = system: SF-295 CNS
# MDA-MB-435 = system: MDA-MB-435
# NCI-H522 lung = system: NCI-H522 lung
# HOP-62 NSCLC = system: HOP-62 NSCLC
# HOP-92 NSCLC = system: HOP-92 NSCLC
# UACC-257 melanoma = system: UACC-257 melanoma
# A498 renal = system: A498 renal
smiles,measurement,setting,value
CO[C@H](C(=O)[C@@H](O)[C@@H](C)O)[C@@H]1Cc2cc3cc(O[C@H]4C[C@@H](O[C@H]5C[C@@H](O)[C@H](O)C(C)O5)[C@H](O)C(C)O4)c(C)c(O)c3c(O)c2C(=O)[C@H]1O[C@H]1C[C@@H](O[C@H]2C[C@@H](O[C@H]3C[C@@H](OC)[C@H](O)C(C)O3)[C@@H](O)C(C)O2)C(O)(O)C(C)O1 (stereo partly specified),GI50,SK-MEL-28 melanoma,43.9 nM
same,TGI,SK-MEL-28 melanoma,1110 nM
same,GI50,BT-549 breast,107 nM
same,TGI,BT-549 breast,1640 nM
same,GI50,HL-60(TB) leukemia,2940 nM
same,TGI,HL-60(TB) leukemia,> 25000 nM
same,GI50,U251 CNS,32.9 nM
same,TGI,U251 CNS,> 25000 nM
same,GI50,ACHN renal,191 nM
same,TGI,ACHN renal,> 25000 nM
same,GI50,CCRF-CEM leukemia,138 nM
same,TGI,CCRF-CEM leukemia,> 25000 nM
same,GI50,UO-31 renal,209 nM
same,TGI,UO-31 renal,2840 nM
same,GI50,SNB-75 CNS,148 nM
same,TGI,SNB-75 CNS,3530 nM
same,GI50,RPMI-8226 leukemia,182 nM
same,TGI,RPMI-8226 leukemia,> 11400 nM
same,GI50,HCC-2998 colon,470 nM
same,TGI,HCC-2998 colon,5090 nM
same,GI50,OVCAR-4 ovarian,404 nM
same,TGI,OVCAR-4 ovarian,> 11700 nM
same,GI50,OVCAR-5 ovarian,376 nM
same,TGI,OVCAR-5 ovarian,> 25000 nM
same,GI50,MDA-MB-231 breast,794 nM
same,TGI,MDA-MB-231 breast,24500 nM
same,GI50,MOLT-4 leukemia,570 nM
same,TGI,MOLT-4 leukemia,> 25000 nM
same,GI50,HCT-15 colon,2650 nM
same,TGI,HCT-15 colon,> 25000 nM
same,GI50,CAKI-1 renal,2890 nM
same,TGI,CAKI-1 renal,> 17300 nM
same,GI50,OVCAR-3 ovarian,240 nM
same,TGI,OVCAR-3 ovarian,7230 nM
same,GI50,KM12 colon,102 nM
same,TGI,KM12 colon,> 25000 nM
same,GI50,MCF7 breast,10.8 nM
same,TGI,MCF7 breast,> 9610 nM
same,GI50,IGROV1 ovarian,116 nM
same,TGI,IGROV1 ovarian,> 25000 nM
same,GI50,SK-MEL-2 melanoma,55.1 nM
same,TGI,SK-MEL-2 melanoma,592 nM
same,GI50,SF-539 CNS,93.8 nM
same,TGI,SF-539 CNS,1680 nM
same,GI50,A549 NSCLC,84.3 nM
same,TGI,A549 NSCLC,> 25000 nM
same,GI50,SR leukemia,93.2 nM
same,TGI,SR leukemia,> 25000 nM
same,GI50,T-47D breast,54.3 nM
same,TGI,T-47D breast,24600 nM
same,GI50,MALME-3M melanoma,53.2 nM
same,TGI,MALME-3M melanoma,2030 nM
same,GI50,SK-OV-3 ovarian,113 nM
same,TGI,SK-OV-3 ovarian,> 25000 nM
same,GI50,HCT-116 colon,35 nM
same,TGI,HCT-116 colon,> 25000 nM
same,GI50,COLO 205 colon,83.3 nM
same,TGI,COLO 205 colon,890 nM
same,GI50,M14 melanoma,275 nM
same,TGI,M14 melanoma,6180 nM
same,GI50,OVCAR-8 ovarian,225 nM
same,TGI,OVCAR-8 ovarian,> 25000 nM
same,GI50,PC-3 prostate,396 nM
same,TGI,PC-3 prostate,> 25000 nM
same,GI50,NCI-H23 lung,176 nM
same,TGI,NCI-H23 lung,4220 nM
same,GI50,HS 578T breast,118 nM
same,TGI,HS 578T breast,> 7660 nM
same,GI50,SNB-19 CNS,97.1 nM
same,TGI,SNB-19 CNS,> 25000 nM
same,GI50,DU-145 prostate,237 nM
same,TGI,DU-145 prostate,> 25000 nM
same,GI50,RXF 393 renal,52.5 nM
same,TGI,RXF 393 renal,306 nM
same,GI50,NCI-H460 lung,33 nM
same,TGI,NCI-H460 lung,> 25000 nM
same,GI50,SK-MEL-5 melanoma,20.8 nM
same,TGI,SK-MEL-5 melanoma,467 nM
same,GI50,HT29 colon,212 nM
same,TGI,HT29 colon,5010 nM
same,GI50,786-0 renal,164 nM
same,TGI,786-0 renal,> 25000 nM
same,GI50,TK-10 renal,150 nM
same,TGI,TK-10 renal,> 24100 nM
same,GI50,UACC-62 melanoma,6.01 nM
same,TGI,UACC-62 melanoma,94.5 nM
same,GI50,EKVX NSCLC,318 nM
same,TGI,EKVX NSCLC,> 25000 nM
same,GI50,NCI/ADR-RES ovarian,> 25000 nM
same,TGI,NCI/ADR-RES ovarian,> 25000 nM
same,GI50,SN12C renal,112 nM
same,TGI,SN12C renal,> 25000 nM
same,GI50,NCI-H226 lung,54.5 nM
same,TGI,NCI-H226 lung,461 nM
same,GI50,LOX IMVI melanoma,74.5 nM
same,TGI,LOX IMVI melanoma,3680 nM
same,GI50,SF-268 CNS,128 nM
same,TGI,SF-268 CNS,> 25000 nM
same,GI50,SW-620 colon,164 nM
same,TGI,SW-620 colon,> 25000 nM
same,GI50,K-562 leukemia,190 nM
same,TGI,K-562 leukemia,> 25000 nM
same,GI50,SF-295 CNS,60.1 nM
same,TGI,SF-295 CNS,> 25000 nM
same,GI50,MDA-MB-435,171 nM
same,TGI,MDA-MB-435,3530 nM
same,GI50,NCI-H522 lung,16.8 nM
same,TGI,NCI-H522 lung,304 nM
same,GI50,HOP-62 NSCLC,51.3 nM
same,TGI,HOP-62 NSCLC,> 25000 nM
same,GI50,HOP-92 NSCLC,103 nM
same,TGI,HOP-92 NSCLC,> 6490 nM
same,GI50,UACC-257 melanoma,37.1 nM
same,TGI,UACC-257 melanoma,511 nM
same,GI50,A498 renal,19.8 nM
same,TGI,A498 renal,115 nM
